Source: patent publication US20240013855A1, “METHOD OF SEARCHING FOR SPECIFIC-BINDING FUNCTIONAL SUBSTANCES, SPECIFIC-BINDING FUNCTIONAL SUBSTANCE SEARCH SYSTEM, SPECIFIC-BINDING FUNCTIONAL SUBSTANCE SEARCH METHOD, AND PROGRAM” (SHINSHU UNIVERSITY, priority 2020, published 2024)

Columns and labels:
kinase DYRK1B = kinase DYRK1B (Homo sapiens, UniProt Q9Y463); assay: Kinase DYRK1B inhibitory activity with and without heating/cooling; type: biochemical; details: for inhibitory activity without heating/cooling: complete protein not heated/cooled; for inhibitory effect specific to the folding intermediate undergoing heating/cooling: with versus without heating/cooling
Sequence of kinase DYRK1B (Q9Y463 whole entry): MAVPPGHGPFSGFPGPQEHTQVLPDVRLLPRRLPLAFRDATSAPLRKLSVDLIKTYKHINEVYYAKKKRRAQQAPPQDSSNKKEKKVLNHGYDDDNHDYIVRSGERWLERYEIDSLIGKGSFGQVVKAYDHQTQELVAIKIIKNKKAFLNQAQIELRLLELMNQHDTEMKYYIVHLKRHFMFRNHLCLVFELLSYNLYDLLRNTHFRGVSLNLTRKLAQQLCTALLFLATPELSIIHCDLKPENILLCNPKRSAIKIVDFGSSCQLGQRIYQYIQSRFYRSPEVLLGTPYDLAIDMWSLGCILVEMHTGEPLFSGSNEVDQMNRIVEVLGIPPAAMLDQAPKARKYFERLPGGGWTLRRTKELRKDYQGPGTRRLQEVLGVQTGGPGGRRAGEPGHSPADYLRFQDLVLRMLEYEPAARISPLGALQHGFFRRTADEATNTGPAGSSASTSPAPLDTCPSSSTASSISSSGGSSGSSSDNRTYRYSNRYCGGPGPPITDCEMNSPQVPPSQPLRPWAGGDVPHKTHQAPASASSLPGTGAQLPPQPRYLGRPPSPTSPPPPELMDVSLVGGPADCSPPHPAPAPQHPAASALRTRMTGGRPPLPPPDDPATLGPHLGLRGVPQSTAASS
Protocol: Consequently, the setpoint heating temperature for the temperature jump test was set to 62.0° C. […] Consequently, the setpoint heating temperature for the temperature jump test was set to 52.0° C.

Kinase DYRK1A = Kinase DYRK1A (Homo sapiens, UniProt Q13627); assay: Kinase DYRK1A enzymatic activity (Kinase Glo, remaining ATP) with or without heating/quick cooling (temperature jump); type: biochemical; details: for inhibitory effect on the complete protein that was not heated/cooled: no heating/cooling (conventional evaluation); for inhibitory effect specific to the folding intermediate undergoing heating/cooling: with versus without heating/cooling (temperature jump)
Protocol: Lastly, in the embodiment, the effect of the presence of the candidate functional substance in influencing the function of the protein is determined (step C). For example, what is determined is, such as, inhibitory effect when searching for an inhibitor, accelerative effect when searching for an accelerator, coagulative effect when searching for a coagulant, stabilizing effect when searching for a stabilizer, or activating effect when searching for an activator, as a functional substance. […] As an example, in this process a determination can be made by using the Promega Kinase Glo assay kit, etc., to quantify the amount of ATP remaining in the tube, and thereby measuring its enzymatic activity. It should be noted that the determination of inhibitory effect is not limited to one based on use of the aforementioned kit, etc.
• Kinase DYRK1A protein mass: 25 ng • DMSO concentration: 0.3% in 25 μL • ATP/substrate peptide (DYRKtide peptide: amino-acid sequence […]) concentration: 5 μM each • Volume at enzymatic reaction: 25 μL • Volume in thermal cycler (Biometra TAdvanced Model 96SG): 15 μL • Enzymatic reaction period: 2 hrs.
• 1. The DYRK1A protein, inhibitors (solvent DMSO alone was added in the case of “Inhibitor 0 μM”), buffer (final concentrations: 5 mM MOPS pH7.2, 2.5 mM beta-glycerol-phosphate, 5 mM MgCl2, 1 mM EGTA, 0.4 mM EDTA, 0.05 mM DTT) and ultrapure water were mixed in tubes placed in a white 96-well PCR plate. [Volume: 15 μL, DYRK1A protein mass: 25 ng, inhibitor concentration: 30 μM] • 2. The plate was set in a thermal cycler and heated for 20 seconds at each heating temperature, and then cooled for 10 seconds at 3° C. [Rate of heating/rate of cooling both 8° C./sec.] • 3. Upon completion of cooling, it was removed immediately and 10 μL of ATP/substrate peptide mixture solution was added. [Volume: 15 μL→25 μL, ATP/substrate peptide concentration 5 μM] • 4. It was set in the thermal cycler again to cause enzymatic reaction for 2 hours […] at 20° C. • 5. It was picked up from the thermal cycler and 25 μL of Kinase Glo reaction solution was added, and from the resulting luminescence value, the remaining amount of ATP was measured to evaluate the enzymatic activity. [Volume: 25 μL 50 μL]

ABL in HEK293 cells = ABL in HEK293 cells (Homo sapiens, UniProt P00519); assay: Western blotting detection of ABL in cultured cell line HEK293; details: HEK293 cultured for 4 days in the presence of compound
Sequence of ABL in HEK293 cells (P00519 whole entry): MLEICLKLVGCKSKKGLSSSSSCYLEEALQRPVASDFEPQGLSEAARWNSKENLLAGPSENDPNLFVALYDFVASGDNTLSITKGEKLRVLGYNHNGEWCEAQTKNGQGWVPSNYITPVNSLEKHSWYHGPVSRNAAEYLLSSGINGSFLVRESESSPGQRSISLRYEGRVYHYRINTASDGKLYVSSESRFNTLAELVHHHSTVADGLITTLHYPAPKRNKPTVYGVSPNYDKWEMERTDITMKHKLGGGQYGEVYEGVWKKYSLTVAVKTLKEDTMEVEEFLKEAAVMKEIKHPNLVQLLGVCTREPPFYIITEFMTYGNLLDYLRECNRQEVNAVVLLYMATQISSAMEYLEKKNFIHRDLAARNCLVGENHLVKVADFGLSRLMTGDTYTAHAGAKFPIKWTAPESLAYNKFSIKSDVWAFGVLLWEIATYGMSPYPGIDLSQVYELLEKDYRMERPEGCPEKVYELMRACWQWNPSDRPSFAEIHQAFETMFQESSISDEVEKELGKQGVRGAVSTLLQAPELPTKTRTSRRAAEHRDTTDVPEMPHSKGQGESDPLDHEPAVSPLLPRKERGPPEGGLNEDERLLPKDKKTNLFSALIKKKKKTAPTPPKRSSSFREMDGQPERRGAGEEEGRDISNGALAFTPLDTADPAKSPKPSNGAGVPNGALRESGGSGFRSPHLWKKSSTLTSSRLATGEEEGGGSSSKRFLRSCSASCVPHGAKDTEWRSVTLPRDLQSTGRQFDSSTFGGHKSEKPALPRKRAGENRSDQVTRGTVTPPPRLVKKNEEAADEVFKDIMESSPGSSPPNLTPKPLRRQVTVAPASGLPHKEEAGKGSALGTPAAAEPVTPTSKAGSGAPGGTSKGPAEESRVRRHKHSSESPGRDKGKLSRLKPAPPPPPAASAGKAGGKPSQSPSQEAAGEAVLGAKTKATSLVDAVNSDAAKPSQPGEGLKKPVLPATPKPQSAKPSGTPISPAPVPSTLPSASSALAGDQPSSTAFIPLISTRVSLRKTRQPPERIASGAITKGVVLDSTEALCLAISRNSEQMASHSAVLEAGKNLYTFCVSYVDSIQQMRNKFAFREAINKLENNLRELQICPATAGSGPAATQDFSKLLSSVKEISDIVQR
Protocol: Additionally, a western blotting detection using the cultured cell line HEK293 was conducted. […] Using the SDS-PAGE and western blotting methods, ABL and GAPDH were detected using antibodies specific to the two.

kinase ABL = kinase ABL (Homo sapiens, UniProt P00519); assay: Kinase ABL inhibitory activity with and without heating/cooling; type: biochemical
Sequence of kinase ABL (P00519 whole entry): as above
Protocol: (§1) Here, inhibitory effects on other kinases were studied.
(§2) As a result, for the kinase DYRK1A, the upper-limit temperature of 67.0° C. and lower-limit temperature of 57.5° C. were calculated as temperature conditions based on the measured data, as shown in FIG. 16. Consequently, the setpoint heating temperature for the temperature jump test was set to 62.0° C. […] Consequently, the setpoint heating temperature for the temperature jump test was set to 53.7° C. Also, for the kinase SRC, the upper-limit temperature of 59.6° C. and lower-limit temperature of 51.4° C. were calculated as temperature conditions based on the measured data, as shown in FIG. 18. Consequently, the setpoint heating temperature for the temperature jump test was set to 55.5° C. Also, for the kinase ABL, the upper-limit temperature of 55.6° C. and lower-limit temperature of 47.3° C. were calculated as temperature conditions based on the measured data, as shown in FIG. 19. Consequently, the setpoint heating temperature for the temperature jump test was set to 52.0° C.

kinase SRC = kinase SRC (Homo sapiens, UniProt P12931); assay: Kinase SRC inhibitory activity with and without heating/cooling; type: biochemical; details: for inhibitory activity on SRC compared with DYRK1A: temperature jump; for inhibition of kinase SRC: with and without heating/cooling, IC80 concentration for temperature-jump inhibition of DYRK1A
Sequence of kinase SRC (P12931 whole entry): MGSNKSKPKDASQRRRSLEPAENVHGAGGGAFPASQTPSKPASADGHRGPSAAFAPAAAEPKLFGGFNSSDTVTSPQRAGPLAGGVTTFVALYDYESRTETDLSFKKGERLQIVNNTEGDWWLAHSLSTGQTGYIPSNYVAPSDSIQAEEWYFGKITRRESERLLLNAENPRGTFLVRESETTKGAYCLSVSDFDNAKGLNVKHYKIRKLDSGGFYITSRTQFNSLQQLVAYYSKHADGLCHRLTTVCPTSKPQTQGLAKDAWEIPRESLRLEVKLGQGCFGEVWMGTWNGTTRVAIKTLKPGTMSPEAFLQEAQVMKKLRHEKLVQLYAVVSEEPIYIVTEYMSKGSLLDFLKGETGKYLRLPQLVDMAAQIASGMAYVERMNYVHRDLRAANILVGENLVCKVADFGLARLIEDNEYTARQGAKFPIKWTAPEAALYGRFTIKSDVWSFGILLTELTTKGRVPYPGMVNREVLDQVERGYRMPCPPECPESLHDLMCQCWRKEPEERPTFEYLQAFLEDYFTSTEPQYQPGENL
Protocol: as §1, §2

DYRK1A in HEK293 cells = target: T1, DYRK1A in HEK293 cells (Homo sapiens, UniProt Q13627); assay: Western blotting detection of DYRK1A in cultured cell line HEK293; type: cell-based; details: HEK293 cultured for 4 days in the presence of compound
T1 construct: endogenous in cells; host or cells: HEK293
Protocol: To be more specific, a study was conducted by western blotting using the cultured cell line HEK293.

monoamine oxidase MAO-A = target: T2, monoamine oxidase MAO-A (Homo sapiens, UniProt P21397); assay: Small-scale screening on monoamine oxidase MAO-A with temperature jump (MAO-A-Glo Assay); type: biochemical; details: temperature jump 69.2° C; plant-derived compound library (1 to 34)
T2 sequence (P21397 1-527): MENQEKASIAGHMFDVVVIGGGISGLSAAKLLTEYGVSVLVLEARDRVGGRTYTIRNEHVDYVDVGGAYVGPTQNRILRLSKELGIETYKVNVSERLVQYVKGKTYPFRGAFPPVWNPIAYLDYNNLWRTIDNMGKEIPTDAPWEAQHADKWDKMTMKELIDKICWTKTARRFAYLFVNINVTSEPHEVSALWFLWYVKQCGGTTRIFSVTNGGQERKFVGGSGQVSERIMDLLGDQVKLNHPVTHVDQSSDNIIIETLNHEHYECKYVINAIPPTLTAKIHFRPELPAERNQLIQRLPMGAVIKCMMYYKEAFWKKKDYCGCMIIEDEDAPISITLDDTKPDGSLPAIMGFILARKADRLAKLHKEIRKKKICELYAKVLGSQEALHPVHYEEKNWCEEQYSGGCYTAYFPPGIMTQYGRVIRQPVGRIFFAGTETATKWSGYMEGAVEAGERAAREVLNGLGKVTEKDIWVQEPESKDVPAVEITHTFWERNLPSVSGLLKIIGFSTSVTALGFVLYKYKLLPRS
Protocol: Also, the monoamine oxidase MAO-A was studied as a way to set the upper-limit temperatures and lower-limit temperatures in FIG. 11 to FIG. 13. FIG. 20 is a figure showing the study results on upper-limit temperature and lower-limit temperature for the monoamine oxidase MAO-A. It should be noted that the test was conducted according to the product manual for Promega's MAO-A-Glo™ Assay Systems. It should be noted that the relative enzymatic activity was calculated based on the enzymatic activity at 40° C. being 1.0.
As a result, for the […] MAO-A, the upper-limit temperature of 76.4° C. and lower-limit temperature of 62.0° C. were calculated as temperature conditions based on the measured data, as shown in FIG. 20. Consequently, the setpoint heating temperature for the temperature jump test was set to 69.2° C. FIG. 21 is a figure showing the small-scale inhibitor screening results with respect to the monoamine oxidase MAO-A.

Row | SMILES | inhibitory activity without heating/cooling (kinase DYRK1B) | inhibitory effect specific to the folding intermediate undergoing heating/cooling (kinase DYRK1B) | inhibitory effect on the complete protein that was not heated/cooled (Kinase DYRK1A) | inhibitory effect specific to the folding intermediate undergoing heating/cooling (Kinase DYRK1A) | inhibitory activity on SRC compared with DYRK1A (kinase SRC) | inhibition of kinase SRC (kinase SRC) | other results
1 | CCOc1cc(/C=C2\SC(=S)NC2=O)ccc1O [RD0392] | exhibited an inhibitory effect | did not exhibit a specific inhibitory effect | exhibited an inhibitory effect | did not exhibit a specific inhibitory effect | – | – | –
2 | COc1ccc(/C=C2\SC(=S)NC2=O)cc1C#C[Si](C)(C)C [FINDY] | – | – | – | – | weaker than those on DYRK1A | inhibited the kinase SRC in a temperature jump-dependent manner | ABL band in western blotting (activity to decompose/remove ABL) (ABL in HEK293 cells): became fainter; inhibitory activity on ABL compared with DYRK1A (kinase ABL; temperature jump): stronger than that on DYRK1A; inhibition of kinase ABL (kinase ABL; with and without heating/cooling): strongly inhibited the kinase ABL in a temperature jump-dependent manner
3 | COc1ccc(/C=C2\SC(=S)NC2=O)cc1C#C[Si](C)(c1ccccc1)c1ccccc1 [compound 168] | – | – | – | – | weaker than those on DYRK1A | inhibited the kinase SRC in a temperature jump-dependent manner | –
4 | COc1ccc2c(c1)[nH]c1c(C)nccc12 [Harmine] | exhibited an inhibitory effect | did not exhibit a specific inhibitory effect | exhibited an inhibitory effect | did not exhibit a specific inhibitory effect | – | – | –
5 | O=C(O[C@H]1Cc2ccccc2C[C@H]1OC(=O)c1cc(O)c(O)c(O)c1)c1cc(O)c(O)c(O)c1 [compound No. 2] | – | – | – | exhibited a specific inhibitory effect only with the folding intermediate | – | – | DYRK1A band in western blotting (activity to decompose/remove DYRK1A) (DYRK1A in HEK293 cells): became fainter; temperature jump-dependent inhibitory activity on MAO-A (monoamine oxidase MAO-A): temperature jump-dependent inhibitory activity was confirmed
